Among the data in patent publication US20250179088A9 (ZYMEWORKS BC INC., priority 2020, published 2025) are EC50 values, retold here.

Structures are written as SMILES. pEC50: −log10 of the molar value.

The test system of test [1] is PBMCs. The test can be described thus: PBMC assay, IL-6 release (HTRF). It is filed as cell-based. Particulars: PBMCs from healthy donors, overnight, IL-6 induction by HTRF, average of quadruplicate. How it is done:
Whole peripheral blood was obtained from healthy donors. PBMCs were isolated from peripheral blood by density gradient centrifugation. […] The plasma layer containing PBMCs was poured into a new tube and washed twice. Isolated PBMCs were either used fresh or thawed from previously frozen. 1×10^5 PBMCs were cultured with titrating concentrations of compounds of Formula I overnight followed by assaying for cytokines by homogeneous time resolved fluorescence (HTRF).

Test [2] has as its target T1, TLR7 (Homo sapiens, UniProt Q9NYK1).
T1 sequence (Q9NYK1 27-1049): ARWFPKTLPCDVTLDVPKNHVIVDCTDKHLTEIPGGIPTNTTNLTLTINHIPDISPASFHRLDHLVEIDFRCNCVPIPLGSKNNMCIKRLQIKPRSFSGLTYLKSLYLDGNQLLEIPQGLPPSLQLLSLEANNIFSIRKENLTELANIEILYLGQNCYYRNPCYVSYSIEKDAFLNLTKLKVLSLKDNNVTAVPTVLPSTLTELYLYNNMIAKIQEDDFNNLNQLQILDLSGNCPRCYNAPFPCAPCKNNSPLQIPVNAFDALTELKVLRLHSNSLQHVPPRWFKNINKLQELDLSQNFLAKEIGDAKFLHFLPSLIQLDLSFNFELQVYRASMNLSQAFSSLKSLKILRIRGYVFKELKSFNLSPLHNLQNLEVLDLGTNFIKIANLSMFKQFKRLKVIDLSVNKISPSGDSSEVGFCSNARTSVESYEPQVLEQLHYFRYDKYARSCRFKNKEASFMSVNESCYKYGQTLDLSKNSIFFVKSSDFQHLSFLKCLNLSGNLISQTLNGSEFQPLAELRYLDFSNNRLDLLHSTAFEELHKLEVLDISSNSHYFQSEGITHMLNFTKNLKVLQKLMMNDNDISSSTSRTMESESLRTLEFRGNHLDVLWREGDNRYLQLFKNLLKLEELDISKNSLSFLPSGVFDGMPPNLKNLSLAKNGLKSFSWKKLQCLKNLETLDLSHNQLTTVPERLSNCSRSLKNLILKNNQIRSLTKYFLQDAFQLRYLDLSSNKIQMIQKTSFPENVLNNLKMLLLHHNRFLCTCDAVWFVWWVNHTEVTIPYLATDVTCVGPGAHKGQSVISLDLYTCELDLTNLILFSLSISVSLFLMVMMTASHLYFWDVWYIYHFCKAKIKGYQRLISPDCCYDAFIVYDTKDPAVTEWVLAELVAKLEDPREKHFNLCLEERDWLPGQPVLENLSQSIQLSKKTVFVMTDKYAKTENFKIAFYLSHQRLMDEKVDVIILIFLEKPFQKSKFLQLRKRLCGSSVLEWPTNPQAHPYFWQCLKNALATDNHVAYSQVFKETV
The test is described as follows: Reporter gene assay, HEK-Blue TLR7 reporter cells (SEAP).
Experimental: (§1) 3×10^4 HEK-Blue™ TLR7 or 3×10^4 TLR8 reporter cells (InvivoGen, San Diego, CA) were treated with titrated (4-fold) amounts of test compound. […] Cells were incubated overnight at 37° C. and 5% CO2, then absorbance (620 and 655 nm) was read on a Synergy™ H1 microplate reader.

Test [3] deals with T2, TLR8 (Homo sapiens, UniProt Q9NR97).
T2 sequence (Q9NR97 27-1041): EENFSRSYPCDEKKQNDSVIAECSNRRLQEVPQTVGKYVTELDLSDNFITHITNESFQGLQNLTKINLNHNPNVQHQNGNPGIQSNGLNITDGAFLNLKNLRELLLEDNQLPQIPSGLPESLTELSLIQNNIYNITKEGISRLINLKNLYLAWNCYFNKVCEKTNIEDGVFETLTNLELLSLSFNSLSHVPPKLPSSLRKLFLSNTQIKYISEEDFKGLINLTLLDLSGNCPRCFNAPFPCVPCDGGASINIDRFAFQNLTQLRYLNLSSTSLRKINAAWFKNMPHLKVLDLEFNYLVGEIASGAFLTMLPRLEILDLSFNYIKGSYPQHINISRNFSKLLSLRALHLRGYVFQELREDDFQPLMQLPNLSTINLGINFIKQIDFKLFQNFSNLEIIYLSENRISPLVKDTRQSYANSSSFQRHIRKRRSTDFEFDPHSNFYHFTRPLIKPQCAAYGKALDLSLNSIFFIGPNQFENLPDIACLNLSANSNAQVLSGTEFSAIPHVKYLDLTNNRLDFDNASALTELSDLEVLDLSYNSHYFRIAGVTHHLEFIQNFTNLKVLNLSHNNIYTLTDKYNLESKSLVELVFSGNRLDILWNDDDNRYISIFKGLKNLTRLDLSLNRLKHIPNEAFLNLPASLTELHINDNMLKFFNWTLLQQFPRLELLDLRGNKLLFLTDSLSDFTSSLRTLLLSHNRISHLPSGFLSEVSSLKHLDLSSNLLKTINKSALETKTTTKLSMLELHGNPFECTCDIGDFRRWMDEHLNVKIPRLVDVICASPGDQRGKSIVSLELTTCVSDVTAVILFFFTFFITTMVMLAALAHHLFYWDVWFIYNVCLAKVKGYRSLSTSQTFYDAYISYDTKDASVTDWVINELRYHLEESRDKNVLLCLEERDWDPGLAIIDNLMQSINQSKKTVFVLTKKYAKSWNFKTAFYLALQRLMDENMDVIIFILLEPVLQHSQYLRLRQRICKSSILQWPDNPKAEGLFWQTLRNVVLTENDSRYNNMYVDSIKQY
The test is described as follows: Reporter gene assay, HEK-Blue TLR8 reporter cells (SEAP). Background: A reporter such as luciferase makes a cellular process visible.
Experimental: as §1

Consider `CCCCc1nc2c(N)nc3ccsc3c2n1Cc1ccc(CN2CCN(CCNC(=O)OC(C)(C)C)CC2)cc1` [Compound 165, tert-butyl (2-(4-(4-((4-amino-2-butyl-1H-imidazo[4,5-d]thieno[3,2-b]pyridin-1-yl)methyl)benzyl)piperazin-1-yl)ethyl)carbamate], for which the pEC50 in test [1] is 7.19; in test [2] it was 7.82; in test [3], less than 6.00.
As to `CCCCc1nc2c(N)nc3ccsc3c2n1CCCCCO` [Compound 172, 5-(4-amino-2-butyl-1H-imidazo[4,5-d]thieno[3,2-b]pyridin-1-yl)pentan-1-ol], the negative-log EC50 (pEC50) in test [1] was 6.24; in test [2] it was 7.57; in test [3], less than 6.00.
Turning to `CCCCc1nc2c(N)nc3ccsc3c2n1CCCCCN=[N+]=[N-]` [Compound 173, 1-(5-azidopentyl)-2-butyl-1H-imidazo[4,5-d]thieno[3,2-b]pyridin-4-amine], the pEC50 in test [1], in test [2] and in test [3] was less than 6.00 in each case.
Turning to `CCCCc1nc2c(N)nc3ccsc3c2n1CCCCCN1CCC(c2ccncc2)CC1` [Compound 174, 2-butyl-1-(5-(4-(pyridin-4-yl)piperidin-1-yl)pentyl)-1H-imidazo[4,5-d]thieno[3,2-b]pyridin-4-amine], the values for the pEC50 in test [1], in test [2] and in test [3] were 7.11, 7.68 and less than 6.00, respectively.
Taken in the same sequence, the figures for `CCCCc1nc2c(N)nc3ccsc3c2n1CCCCCN(CC)CC` [Compound 175, 2-butyl-1-(5-(diethylamino)pentyl)-1H-imidazo[4,5-d]thieno[3,2-b]pyridin-4-amine] were 7.00, 7.92 and 6.42.
The like results for `CCCCc1nc2c(N)nc3ccsc3c2n1CCCCCN1CCN(CCN2CCOCC2)CC1` [Compound 176, 2-butyl-1-(5-(4-(2-morpholinoethyl)piperazin-1-yl)pentyl)-1H-imidazo[4,5-d]thieno[3,2-b]pyridin-4-amine] were, in that order, 7.24, 7.48 and less than 6.00.
`CCCCc1nc2c(N)nc3ccsc3c2n1CCCCCNCC(C)(C)N1CCOCC1` [Compound 177, 2-butyl-1-(5-((2-methyl-2-morpholinopropyl)amino)pentyl)-1H-imidazo[4,5-d]thieno [3,2-b]pyridin-4-amine]: the pEC50 in test [1] was 6.57; in test [2], 7.62; in test [3], 6.24.
The like results for `CCCCc1nc2c(N)nc3ccsc3c2n1CCCCCNCCCCCO` [Compound 178, 5-((5-(4-amino-2-butyl-1H-imidazo[4,5-d]thieno[3,2-b]pyridin-1-yl)pentyl)amino) pentan-1-ol] were, in that order, less than 6.00, 7.43 and less than 6.00.
Turning to `CCCCc1nc2c(N)nc3ccsc3c2n1CCCCCNCc1ccc(CO)cc1` [Compound 179, (4-(((5-(4-amino-2-butyl-1H-imidazo[4,5-d]thieno[3,2-b]pyridin-1-yl)pentyl)amino)methyl)phenyl)methanol], the negative-log EC50 (pEC50) was 7.12 in test [1], 7.92 in test [2] and 6.59 in test [3].
Taken in the same sequence, the figures for `CCCCc1nc2c(N)nc3ccsc3c2n1CCCCCNCC(C)(C)O` [Compound 180, 1-((5-(4-amino-2-butyl-1H-imidazo[4,5-d]thieno[3,2-b]pyridin-1-yl)pentyl)amino)-2-methylpropan-2-ol] were 6.21, 7.08 and less than 6.00.
As to `CCCCc1nc2c(N)nc3ccsc3c2n1CCCCCN1CCNCC1` [Compound 182], the negative-log EC50 (pEC50) is 6.80 in test [1], 7.62 in test [2] and less than 6.00 in test [3].
Taken in the same sequence, the figures for `CCCCc1nc2c(N)nc3ccsc3c2n1CCCCCNCc1cc[nH]c1` [Compound 183, 1-(5-(((1H-pyrrol-3-yl)methyl)amino)pentyl)-2-butyl-1H-imidazo[4,5-d]thieno[3,2-b]pyridin-4-amine] were less than 6.00, 7.47 and less than 6.00.
Taken in the same sequence, the figures for `CCCCc1nc2c(N)nc3ccsc3c2n1Cc1cccc(CN2CCN(C(=O)OC(C)(C)C)CC2)c1` [Compound 196, tert-butyl 4-(3-((4-amino-2-butyl-1H-imidazo[4,5-d]thieno[3,2-b]pyridin-1-yl)methyl)benzyl)piperazine-1-carboxylate] were less than 6.00, less than 6.00 and less than 6.00.
The like results for `CCCCc1nc2c(N)nc3ccsc3c2n1Cc1cccc(CNCc2cc[nH]c2)c1` [Compound 197, 1-(3-((((1H-pyrrol-3-yl)methyl)amino)methyl)benzyl)-2-butyl-1H-imidazo[4,5-d]thieno [3,2-b]pyridin-4-amine] were, in that order, 6.54, 7.20 and 6.31.
Consider `CCCCc1nc2c(N)nc3ccsc3c2n1Cc1cccc(CN2CCC(c3ccncc3)CC2)c1` [Compound 198, 2-butyl-1-(3-((4-(pyridin-4-yl)piperidin-1-yl)methyl)benzyl)-1H-imidazo[4,5-d]thieno [3,2-b]pyridin-4-amine], for which the results for the pEC50 in test [1], in test [2] and in test [3] were 6.55, 6.66 and less than 6.00, respectively.
The like results for `CCCCc1nc2c(N)nc3ccsc3c2n1Cc1cccc(CN(CC)CC)c1` [Compound 199, 2-butyl-1-(3-((diethylamino)methyl)benzyl)-1H-imidazo[4,5-d]thieno[3,2-b]pyridin-4-amine] were, in that order, 6.48, 6.89 and 6.37.
The like results for `CCCCc1nc2c(N)nc3ccsc3c2n1Cc1cccc(CN2CCN(CCN3CCOCC3)CC2)c1` [Compound 200, 2-butyl-1-(3-((4-(2-morpholinoethyl)piperazin-1-yl)methyl)benzyl)-1H-imidazo[4,5-d]thieno[3,2-b]pyridin-4-amine] were, in that order, less than 6.00, 6.26 and less than 6.00.
The like results for `CCCCc1nc2c(N)nc3ccsc3c2n1Cc1cccc(CNCC(C)(C)N2CCOCC2)c1` [Compound 202, 2-butyl-1-(3-(((2-methyl-2-morpholinopropyl)amino)methyl)benzyl)-1H-imidazo[4,5-d]thieno[3,2-b]pyridin-4-amine] were, in that order, 6.12, 6.48 and 6.02.
Turning to `CCCCc1nc2c(N)nc3ccsc3c2n1Cc1cccc(CNCCCCCO)c1` [Compound 203, 5-((3-((4-amino-2-butyl-1H-imidazo[4,5-d]thieno[3,2-b]pyridin-1-yl)methyl)benzyl)amino)pentan-1-ol], the pEC50 was 6.80 in test [1], 6.54 in test [2] and 6.92 in test [3].

The term pEC50 denotes −log10 of the EC50, conventionally taken in molar units.
